Results published in US9333193B2, “Compositions and methods for treating tuberculosis” (priority 2010, dated 2016).
Converted amounts (≈) assume the structure as drawn. Read-outs that look alike come from different tables or passages of the source.

Experiments:
[1] = system: Mycobacterium tuberculosis; assay: microbe, parasite or virus in culture; conditions: agar proportion
[2] = system: Mycobacterium avium Va14(T); assay: Anti-mycobacterial activity of nitazoxanides, MIC in Middlebrook 7H9; format: cell-based; conditions: Middlebrook 7H9, 37° C.; for MIC: Mycobacterium avium, read-out: Minimal Inhibitory Concentration, M. avium
Procedure: (§1) (1) Strains: Mycobacterium smegmatis mc2155, Mycobacterium chelonae EOP-1, Mycobacterium marinum ATCC 927, Mycobacterium avium Va14(T), and Mycobacterium abscessus AAy-P-1).
(§2) (2) Medium: Middlebrook 7H9 containing 0.5% (vol/vol) glycerol and 10% (vol/vol) oleic acid-albumin.
(§3) (3) Incubation Temperature: 37° C., except M. marinum 30° C.
(§4) (4) Nitazoxanides: Precipitates were present in wells of nitazoxanides with high concentrations (250-31 μg/mL) except for 162080, 162088, 16b2026, and 16b2031.
(§5) The strains used were Mycobacterium smegmatis mc2155, Mycobacterium chelonae EOP-1, Mycobacterium marinum ATCC 927, Mycobacterium avium Va14(T), and Mycobacterium abscessus AAy-P-1. The medium use was Middlebrook 7H9 containing 0.5% (vol/vol) glycerol and 10% (vol/vol) oleic acid-albumin. Incubation Temperature was 37° C., except for M. marinum at 30° C. For nitazoxanides, precipitates were present in wells of nitazoxanides with high concentrations (250-31 μg/mL) except for 162080, 162088, 16b2026, and 16b2031.

[3] = system: Mycobacterium abscessus AAy-P-1; assay: as above; format: cell-based; conditions: Middlebrook 7H9, 37° C.; for MIC: Mycobacteroides abscessus, AAYP1, read-out: Minimal Inhibitory Concentration, M. abscessus
Procedure: as §1, §2, §3, §4, §5

[4] = system: Mycobacterium chelonae EOP-1; assay: as above; format: cell-based; conditions: Middlebrook 7H9, 37° C.; for MIC: read-out: Minimal Inhibitory Concentration, M. chelonae
Procedure: as §1, §2, §3, §4, §5

[5] = system: Mycobacterium marinum ATCC 927; assay: as above; format: cell-based; conditions: Middlebrook 7H9, 30° C.; for MIC: Mycobacterium marinum, ATCC927, read-out: Minimal Inhibitory Concentration, M. marinum
Procedure: as §1, §2, §3, §4, §5

[6] = system: Mycobacterium smegmatis mc2155; assay: as above; format: cell-based; conditions: Middlebrook 7H9, 37° C.; for MIC: Mycolicibacterium smegmatis, MC2155, read-out: Minimal Inhibitory Concentration, M. smegmatis
Procedure: as §1, §2, §3, §4
(5) Decolorization: Almost all the yellow nitazoxanides, namely 16b1090, 16b1092 and 16b1093, 16b1094, 16b2023, 16b2025, and 16b2026 were decolorized by M. smegmatis strain mc2155. None of the other mycobacterial strains decolorized the compounds. Note that the compound numbers are also referred to herein with the prefix VPC.
as §5
Decolorization: Almost all the yellow nitazoxanides, namely 16b1090, 16b1092 and 16b1093, 16b1094, 16b2023, 16b2025, and 16b2026 were decolorized by M. smegmatis strain mc2155. None of the other mycobacterial strains decolorized the compounds.

TB organisms = conditions: cited from earlier work
M. tuberculosis = assay: microbe, parasite or virus in culture; format: cell-based, Mycobacterium tuberculosis; parameters: % Inhibit growth, H37Rv / % Inhibit growth, Susceptible / % Inhibit growth, MDR / % Inhibit growth, XDR / inhibition: dose or concentration left out as unconfirmed; conditions: for inhibition: Mycobacterium tuberculosis; for % Inhibit growth, MDR: MDR strain; for % Inhibit growth, MDR / % Inhibit growth, Susceptible / % Inhibit growth, XDR / % Inhibit growth, H37Rv / Potency against M. tuberculosis in words (Table 1): agar proportion method; for % Inhibit growth, Susceptible: Susceptible strain; for % Inhibit growth, XDR: XDR strain; for % Inhibit growth, H37Rv: strain H37Rv
[7] = system: Mycobacterium tuberculosis; conditions: agar proportion
[8] = H37RV, isolate H37Rv (Reference)
[9] = read-out: % Inhibit growth, MDR
[10] = read-out: % Inhibit growth, XDR

Row | Compound | MIC [1, 8] [µg/mL] | MIC ([1]; isolate 234 (MDR-TB)) [µg/mL] | MIC ([1]; isolate 283 (susceptible)) [µg/mL] | MIC ([1]; isolate 565 (MDR-TB)) [µg/mL] | MIC ([1]; isolate 694 (MDR-TB)) [µg/mL] | MIC ([1]; isolate 750 (MDR-TB)) [µg/mL] | MIC ([1]; isolate 823 (XDR-TB)) [µg/mL] | MIC ([1]; isolate 971 (MDR-TB)) [µg/mL] | MIC [2] [µg/mL] | MIC [3] [µg/mL] | MIC [4] [µg/mL] | MIC [5] [µg/mL] | MIC [6] [µg/mL] | inhibition (M. tuberculosis; [9]) [%] | inhibition (M. tuberculosis; [10]) [%] | other results
1 | NNC(=O)c1ccncc1 [Isoniazid, reference compound] | ≤ 125 | 16000 (≈ 117 mM) | ≤ 125 | 8000 (≈ 58.3 mM) | 16000 (≈ 117 mM) | 8000 (≈ 58.3 mM) | 8000 (≈ 58.3 mM) | 4000 (≈ 29.2 mM) | – | – | – | – | – | – | – | –
2 | CC(=O)Oc1ccccc1C(=O)Nc1ncc([N+](=O)[O-])s1 [Nitazoxanide, 2-(acetyloxy)-N-(5-nitro-2-thiazolyl)benzamide, reference compound] | – | – | – | – | – | – | – | – | 250 (≈ 0.814 mM) | 63 (≈ 0.205 mM) | 63 (≈ 0.205 mM) | 31 (≈ 0.101 mM) | > 250 | – | – | Action against TB in presence of proteins found in serum (TB organisms): inhibited by proteins that would be found in serum
3 | CO[C@H]1/C=C/O[C@@]2(C)Oc3c(C)c(O)c4c(O)c(c(/C=N/N5CCN(C)CC5)c(O)c4c3C2=O)NC(=O)/C(C)=C\C=C\[C@H](C)[C@H](O)[C@@H](C)[C@@H](O)[C@@H](C)[C@H](OC(C)=O)[C@@H]1C [Rifampin, reference compound] | ≤ 125 | 16000 (≈ 19.4 mM) | ≤ 125 | ≥ 32000 | ≥ 32000 | ≥ 32000 | ≥ 32000 | ≥ 32000 | – | – | – | – | – | – | – | –
4 | O=C(Nc1ncc([N+](=O)[O-])s1)c1ccc(Cl)c(C(F)(F)F)c1 [VPC16a1060, 4-Chloro-N-(5-nitrothiazol-2-yl)-3-(trifluoromethyl)benzamide] | – | – | – | – | – | – | – | – | – | – | – | – | – | 98 | 90 | –
5 | CCCCCC(=O)Nc1sc([N+](=O)[O-])cc1[N+](=O)[O-] [VPC16b1089] | – | – | – | – | – | – | – | – | – | – | – | – | – | – | – | Minimal Inhibitory Concentration, M. avium [2]: 63 µg/mL; Minimal Inhibitory Concentration, M. abscessus [3]: 4. μg/mL; Minimal Inhibitory Concentration, M. chelonae [4]: 31 µg/mL; Minimal Inhibitory Concentration, M. marinum [5]: 16 µg/mL; Minimal Inhibitory Concentration, M. smegmatis [6]: 125 µg/mL; % Inhibit growth, MDR (M. tuberculosis): 0%; % Inhibit growth, Susceptible (M. tuberculosis): 0%; % Inhibit growth, XDR (M. tuberculosis): 0%; % Inhibit growth, H37Rv (M. tuberculosis): 0%
6 | O=C(Nc1sc([N+](=O)[O-])cc1[N+](=O)[O-])c1ccccc1 [VPC16b1090] | 4000 (≈ 13.6 mM) | 4000 (≈ 13.6 mM) | 4000 (≈ 13.6 mM) | 4000 (≈ 13.6 mM) | 2000 (≈ 6.82 mM) | 4000 (≈ 13.6 mM) | 4000 (≈ 13.6 mM) | 2000 (≈ 6.82 mM) | 8 (≈ 0.0273 mM) | 0.5 (≈ 0.0017 mM) | 1 (≈ 0.00341 mM) | 4 (≈ 0.0136 mM) | 16 (≈ 0.0546 mM) | 100 | 100 | Potency against M. tuberculosis in words (Table 1) (M. tuberculosis): most potent
7 | O=C(Nc1sc([N+](=O)[O-])cc1[N+](=O)[O-])c1cccc(C(F)(F)F)c1 [VPC16b1092] | – | – | – | – | – | – | – | – | – | – | – | – | – | – | – | MIC ([7]; isolate 234 (MDR-TB)): 2000 µg/mL (≈ 5.54 mM); MIC ([7]; isolate 283 (susceptible)): 2000 µg/mL (≈ 5.54 mM); MIC ([7]; isolate 565 (MDR-TB)): 2000 µg/mL (≈ 5.54 mM); MIC ([7]; isolate 694 (MDR-TB)): 1000 µg/mL (≈ 2.77 mM); MIC ([7]; isolate 750 (MDR-TB)): 2000 µg/mL (≈ 5.54 mM); MIC ([7]; isolate 823 (XDR-TB)): 2000 µg/mL (≈ 5.54 mM); MIC ([7]; isolate 971 (MDR-TB)): 2000 µg/mL (≈ 5.54 mM); MIC ([7]; isolate H37Rv (Reference)): 2000 µg/mL (≈ 5.54 mM); Minimal Inhibitory Concentration, M. avium [2]: 8 µg/mL; Minimal Inhibitory Concentration, M. abscessus [3]: 0.25 µg/mL; Minimal Inhibitory Concentration, M. chelonae [4]: 4 µg/mL; Minimal Inhibitory Concentration, M. marinum [5]: 4 µg/mL; Minimal Inhibitory Concentration, M. smegmatis [6]: 31 µg/mL; % Inhibit growth, MDR (M. tuberculosis): 100%; % Inhibit growth, Susceptible (M. tuberculosis): 100%; % Inhibit growth, XDR (M. tuberculosis): 100%; Potency against M. tuberculosis in words (Table 1) (M. tuberculosis): most potent; % Inhibit growth, H37Rv (M. tuberculosis): 100%
8 | O=C(Nc1sc([N+](=O)[O-])cc1[N+](=O)[O-])c1cccs1 [VPC16b1093, N-(3,5-Dinitrothiophen-2-yl)thiophene-2-carboxamide] | – | – | – | – | – | – | – | – | 31 (≈ 0.104 mM) | 1 (≈ 0.00334 mM) | 2 (≈ 0.00668 mM) | 31 (≈ 0.104 mM) | 125 (≈ 0.418 mM) | 100 | 100 | –
